Laboratory results as given in patent publication US20080200405A1, “Drug Resistance Reversal In Neoplastic Disease” (priority 2007, published 2008).

Experiments:
[1] = test system: H2O2-induced angiogenesis in the CAM model; test: H2O2-induced angiogenesis in the CAM model; assay type: in vivo, chicken; details: for % Inhibition ± SD / Branch pts ± SEM: H2O2 88 μM, 30 ng
Method: (§1) In vivo neovascularization was examined by the method previously described by Auerbach et al. (J. Dev. Biol. 41:391-394 (1974)). Ten-day old chicken embryos were purchased from Spafas, Inc. (Preston, Conn.) and were incubated at 37° C. with 55% relative humidity. In the dark, with the aid of a candling lamp, a small hole was punctured in the shell concealing the air sac with a hypodermic needle. A second hole was punctured in the shell on the broadside of the egg directly over an […] portion of the embryonic membrane, as observed during candling. An artificial air sac was created beneath the second hole by applying gentle vacuum to the first hole using a small rubber squeeze bulb. The vacuum caused the chorioallantoic membrane (CAM) to separate from the shell.
(§2) A pro-angiogenic agent was added to induce new blood vessel branches on the CAM of 10-day old embryos. Filter disks of #1 filter paper (Whatman International, United Kingdom) were punched using a small puncher and were soaked in 3 mg/mL cortisone acetate (Sigma, St. Louis, Mo.) in a solution (95% ethanol and water). The disks were subsequently air dried under sterile conditions. The disks were then suspended in PBS (Phosphate Buffered Saline) and placed on growing CAMs. Filters treated with TP-H (TEMPOL-H) or TEMPOL and/or H2O2 or TP-H and/or bFGF or VEGF were placed on the first day of the 3-day incubation.
(§3) The number of vessel branch points contained in a circular region equal to the area of a filter disk was counted for each section. Percent inhibition data are expressed as the quotient of the experimental value minus the negative control value divided by the difference between the positive control value and the negative control value. One image was counted in each CAM preparation, and findings from eight CAM preparations were analyzed for each treatment condition. In addition, each experiment was performed three times. The resulting angiogenesis index is the mean ±SEM (Standard Error of Measurement) of new branch points in each set of treatment. Statistical analysis of blood vessel branching patterns are performed by 1-way analysis of variance (ANOVA) comparing experimental with corresponding control groups. Statistical significance differences are assessed at P value of <0.05.
TP-H (TEMPOL-H, the hydroxylamine reduced form of the nitroxide 4-hydroxy-2,2,6,6-tetramethylpiperidin-1-yloxy) or TEMPOL (4-hydroxy-2,2,6,6-tetramethylpiperidine-N-oxyl radical) was applied to the CAM model study to determine its respective anti-angiogenesis effects according to the materials and methods provided in Example 1. H2O2 was used to induce angiogensis in the CAM model.

[2] = test system: VEGF-induced angiogenesis in the CAM model; test: VEGF-induced angiogenesis in the CAM model; assay type: in vivo, chicken; details: for Mean % Inhibition ± SD / Mean Branch points ± SD: VEGF 2 μg/ml
Method: as §1, §2, §3
TP-H was applied to the CAM model study to determine its respective anti-angiogenesis effects according to the materials and methods described above. VEGF was used to induce angiogenesis in the CAM model.

[3] = In vitro stability in rat, rabbit, dog, and human plasma (overall statement); assay type: in vitro ADME; details: 240 minute incubation in plasma
Method: The active metabolite of OT-551 (Cyclopropanecarboxylic acid 1-hydroxy-2,2,6,6-tetramethyl-piperidin-4-yl ester) is TP-H. The objective of this analysis was to determine the in vitro half-life of OT-551 in rat, rabbit, dog, and human plasma under standardized incubation conditions.
OT-551 was incubated with pooled rat, rabbit, dog, and human plasma for various times under standardized incubation conditions. Pre-labeled tubes containing pooled plasma from rats, rabbits, dogs, and humans were pre-incubated in a shaking 37° C. water bath. A OT-551 solution was added to the tubes at a final concentration of 1000 ng/mL. Time zero samples (n=5) were immediately removed and transferred into tubes containing a stabilizer solution (DTPA, acetylcysteine and ascorbic acid), the LC/MS/MS assay internal standard and methanol. […] The tubes were vortexed, placed on ice, followed by centrifugation. One hundred-μL aliquots of the supernatant were transferred into HPLC sample vials. Additional tubes (n=5 at each time point) were incubated for 5, 10, 20, 30, 60, 120, and 240 minutes at 37° C. and thereafter processed. The amount of OT-551 and TP-H in each incubated sample was quantified using validated LC/MS/MS assays.

[4] = test system: selenite induced cataract; test: Selenite induced cataract in mice; details: mouse, in vivo
From the text: In addition, as mentioned above, there is no precedent for the prevention of growth factor-induced angiogenesis by either TEMPOL or hydroxylamines.

[5] = test system: mouse V79 cells; details: cited from earlier work

CC1(C)CC(O)CC(C)(C)N1O [TEMPOL-H]
% Inhibition ± SD ([1]; 100 μg): 28.0 ± 13.6 % | Branch pts ± SEM ([1]; 100 μg): 155 ± 14.4 | % Inhibition ± SD ([1]; 200 μg): 32.9 ± 8.4 % | Branch pts ± SEM ([1]; 200 μg): 151.3 ± 15.3 | % Inhibition ± SD ([1]; 400 μg): 44.7 ± 6.6 % | Branch pts ± SEM ([1]; 400 μg): 137.2 ± 6.9 | % Inhibition ± SD ([1]; 800 μg): 55.7 ± 7.2 % | Branch pts ± SEM ([1]; 800 μg): 127.3 ± 6.4 | inhibition of angiogenesis induced by super-maximal concentrations of H2O2 ([1]; in vivo): effectively inhibited | Mean % Inhibition ± SD ([2]; 100 μg): 37.6 ± 6.9 % | Mean Branch points ± SD ([2]; 100 μg): 154.8 ± 7.5 | Mean % Inhibition ± SD ([2]; 200 μg): 42 ± 3.5 % | Mean Branch points ± SD ([2]; 200 μg): 150 ± 3.8 | Mean % Inhibition ± SD ([2]; 400 μg): 53.3 ± 3.3 % | Mean Branch points ± SD ([2]; 400 μg): 137.8 ± 3.0 | Mean % Inhibition ± SD ([2]; 800 μg): 70.7 ± 9.1 % | Mean Branch points ± SD ([2]; 800 μg): 118.8 ± 9.9 | inhibition of VEGF-induced angiogenesis ([2]; in vivo): dose-dependent inhibition | stability of TP-H during the incubation period [3]: stable during the 240 minute incubation period | prevention of selenite induced cataract [4]: effective | radioprotection of mouse V79 cells [5]: did not provide any radioprotection
